In patent publication US10988477B2 (Merck Patent GmbH, priority 2018, dated 2021):
Counter-ions that a name gives are not always drawn.

Columns and labels:
[1] = molecular target: GCN2 kinase (Homo sapiens, UniProt Q9P2K8); experiment: GCN2 enzyme inhibition assay (Transcreener ADP2 fluorescence polarization); assay type: biochemical; conditions: compounds of Formula II; 280 μM ATP, 4 nM GCN2 kinase
In short: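 Run at 25 °C in 25 mM Tris-HCl pH 7.5, 50 mM NaCl, 10 mM MgCl2, 1 mM DTT with 4 nM GCN2, 280 μM ATP and 200 μM (RS)7 peptide; compound (0–8 μM final) preincubated 10 min, reaction 1 h. ADP read by antibody/tracer FP; IC50 and Ki(app) from tight-binding fit.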

[2] = molecular target: intracellular GCN2 (phosphorylation of the GCN2 substrate eIF2α) (Homo sapiens, UniProt Q9P2K8); experiment: GCN2 cellular inhibition assay (AlphaScreen SureFire P-eIF2α Ser51, borrelidin-treated U2OS cells); assay type: cell-based; conditions: compounds of Formula II; biomarker assay, phosphorylated eIF2α Ser51 in borrelidin-treated U2OS cells
intracellular GCN2 (phosphorylation of the GCN2 substrate eIF2α), sequence (Q9P2K8 whole entry): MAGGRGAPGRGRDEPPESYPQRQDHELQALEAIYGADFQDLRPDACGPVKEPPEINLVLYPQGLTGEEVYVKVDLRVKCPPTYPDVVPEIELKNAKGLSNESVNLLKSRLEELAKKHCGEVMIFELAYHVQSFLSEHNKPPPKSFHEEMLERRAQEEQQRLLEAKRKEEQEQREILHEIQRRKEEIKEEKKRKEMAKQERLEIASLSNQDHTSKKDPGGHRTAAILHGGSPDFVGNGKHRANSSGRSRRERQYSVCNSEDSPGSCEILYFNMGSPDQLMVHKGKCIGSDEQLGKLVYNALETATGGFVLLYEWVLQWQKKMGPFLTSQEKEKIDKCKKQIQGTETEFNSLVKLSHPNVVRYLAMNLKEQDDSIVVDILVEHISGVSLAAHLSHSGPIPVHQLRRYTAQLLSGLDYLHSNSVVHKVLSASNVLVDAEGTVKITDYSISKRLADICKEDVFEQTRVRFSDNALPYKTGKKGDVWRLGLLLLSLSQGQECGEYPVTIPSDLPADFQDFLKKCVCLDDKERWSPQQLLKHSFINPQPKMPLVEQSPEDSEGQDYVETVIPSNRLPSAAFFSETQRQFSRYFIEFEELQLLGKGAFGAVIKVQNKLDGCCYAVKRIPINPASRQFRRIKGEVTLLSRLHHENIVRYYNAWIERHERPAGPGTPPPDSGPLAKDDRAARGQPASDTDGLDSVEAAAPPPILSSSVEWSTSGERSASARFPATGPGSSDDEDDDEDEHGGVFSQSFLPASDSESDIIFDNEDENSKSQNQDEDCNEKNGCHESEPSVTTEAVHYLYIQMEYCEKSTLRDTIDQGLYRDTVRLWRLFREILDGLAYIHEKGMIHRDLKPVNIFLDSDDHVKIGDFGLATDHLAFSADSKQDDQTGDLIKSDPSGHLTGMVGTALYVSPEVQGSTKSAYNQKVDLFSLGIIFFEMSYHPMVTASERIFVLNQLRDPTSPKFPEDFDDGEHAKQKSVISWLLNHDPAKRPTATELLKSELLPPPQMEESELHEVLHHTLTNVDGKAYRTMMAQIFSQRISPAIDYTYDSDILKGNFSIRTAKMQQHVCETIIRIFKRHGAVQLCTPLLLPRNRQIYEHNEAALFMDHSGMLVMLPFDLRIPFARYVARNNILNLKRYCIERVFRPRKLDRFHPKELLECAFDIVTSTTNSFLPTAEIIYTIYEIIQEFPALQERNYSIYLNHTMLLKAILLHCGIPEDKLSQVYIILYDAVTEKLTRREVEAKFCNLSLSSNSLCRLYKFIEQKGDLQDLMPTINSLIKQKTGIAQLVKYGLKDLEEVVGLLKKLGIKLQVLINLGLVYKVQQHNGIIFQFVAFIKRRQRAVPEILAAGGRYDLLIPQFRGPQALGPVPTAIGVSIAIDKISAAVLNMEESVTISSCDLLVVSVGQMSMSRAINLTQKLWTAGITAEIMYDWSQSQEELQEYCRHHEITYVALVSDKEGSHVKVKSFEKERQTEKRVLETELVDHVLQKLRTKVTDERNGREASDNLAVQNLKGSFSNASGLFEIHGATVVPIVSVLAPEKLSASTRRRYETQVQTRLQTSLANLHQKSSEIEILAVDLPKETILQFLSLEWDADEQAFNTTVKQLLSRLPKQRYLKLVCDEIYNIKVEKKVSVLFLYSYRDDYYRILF
In short: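 U2OS cells, adhered overnight, received compounds in 4-fold serial dilutions from 40 μM final, then 10 μM borrelidin for 1 h at 37 °C. Lysates were read by AlphaScreen for phospho-eIF2α Ser51; percent inhibition was set against borrelidin-only wells.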

GCN2 kinase, sequence (Q9P2K8 whole entry): as above

Compound | Ki [1] [nM] | IC50 [2] [µM]
O=C1NCC2CCN(c3cc(-c4cnc5ccc(C(F)F)nn45)ncn3)CC12 (centres unmarked) [II-200, 5-(6-(6-(Difluoromethyl)imidazo[1,2-b]pyridazin-3-yl)pyrimidin-4-yl)octahydro-3H-pyrrolo[3,4-c]pyridin-3-one] | 10 to 1000 | > 5
C[C@@H]1CN(c2cc(-c3cnc4ccc(C(F)F)nn34)ncn2)CC(C(N)=O)O1 (stereo partly drawn) [II-201, (6R)-4-(6-(6-(Difluoromethyl)imidazo[1,2-b]pyridazin-3-yl)pyrimidin-4-yl)-6-methylmorpholine-2-carboxamide] | 10 to 1000 | > 5
FC(F)c1ccc2ncc(-c3cc(N4CCC(c5c[nH]cn5)C4)ncn3)n2n1 (centres unmarked) [II-203, 3-(6-(3-(1H-imidazol-4-yl)pyrrolidin-1-yl)pyrimidin-4-yl)-6-(difluoromethyl)imidazo[1,2-b]pyridazine] | 10 to 1000 | > 5
COc1ccc2ncc(-c3ccnc(N4CCN(C(C)=O)CC4)c3)n2n1 [II-204, 1-(4-(4-(6-Methoxyimidazo[1,2-b]pyridazin-3-yl)pyridin-2-yl)piperazin-1-yl)ethan-1-one trifluoroacetate] | 10 to 1000 | > 5
NC(=O)c1cc(C2CCCN(c3cc(-c4cnc5ccc(C(F)F)nn45)ncn3)C2)n[nH]1 (centres unmarked) [II-205, 3-(1-(6-(6-(Difluoromethyl)imidazo[12-b]pyridazin-3-yl)pyrimidin-4-yl)piperidin-3-yl)-1H-pyrazole-5-carboxamide] | 10 to 1000 | 0.5 to 5
CS(=O)(=O)N1CCN(C(=O)C2CCCN(c3cc(-c4cnc5ccc(C(F)F)nn45)ncn3)C2)CC1 (centres unmarked) [II-206, (1-(6-(6-(Difluoromethyl)imidazo[1,2-b]pyridazin-3-yl)pyrimidin-4-yl)piperidin-3-yl)(4-(methylsulfonyl)piperazin-1-yl)methanone] | 10 to 1000 | > 5
O=C1CCCC2CN(c3cc(-c4cnc5ccc(Cl)nn45)ccn3)CCN12 (centres unmarked) [II-207, 2-(4-(6-Chloroimidazo[1,2-b]pyridazin-3-yl)pyridin-2-yl)hexahydro-1H-pyrido[1,2-a]pyrazin-6(2H)-one] | 10 to 1000 | > 5
CC(=O)N1CCN(c2cc(-c3cnc4ccc(Cl)nn34)ccn2)CC1 [II-208, 1-(4-(4-(6-Chloroimidazo[1,2-b]pyridazin-3-yl)pyridin-2-yl)piperazin-1-yl)ethanone] | 10 to 1000 | > 5
COCC(=O)NCCC1CCCN(c2cc(-c3cnc4ccc(C(F)F)nn34)ncn2)C1 (centres unmarked) [II-209, N-(2-(1-(6-(6-(Difluoromethyl)imidazo[1,2-b]pyridazin-3-yl)pyrimidin-4-yl)piperidin-3-yl)ethyl)-2-methoxyacetamide] | 10 to 1000 | > 5
NC(=O)C1COCCN(c2cc(-c3cnc4ccc(C(F)F)nn34)ncn2)C1 (centres unmarked) [II-210, 4-(6-(6-(Difluoromethyl)imidazo[1,2-b]pyridazin-3-yl)pyrimidin-4-yl)-1,4-oxazepane-6-carboxamide] | 10 to 1000 | > 5
O=C1CCC2(CCN(c3cc(-c4cnc5ccc(C(F)F)nn45)ncn3)CC2)CN1 [II-211, 9-(6-(6-(Difluoromethyl)imidazo[1,2-b]pyridazin-3-yl)pyrimidin-4-yl)-2,9-diazaspiro[5.5]undecan-3-one] | 10 to 1000 | 0.5 to 5
NC(=O)CCC1CCN(c2cc(-c3cnc4ccc(C(F)F)nn34)ncn2)CC1 [II-212, 3-(1-(6-(6-(Difluoromethyl)imidazo[1,2-b]pyridazin-3-yl)pyrimidin-4-yl)piperidin-4-yl)propanamide] | 10 to 1000 | 0.5 to 5
NC(=O)CCC1CCCN(c2cc(-c3cnc4ccc(C(F)F)nn34)ncn2)C1 (centres unmarked) [II-214, 3-(1-(6-(6-(Difluoromethyl)imidazo[1,2-b]pyridazin-3-yl)pyrimidin-4-yl)piperidin-3-yl)propanamide] | 10 to 1000 | 0.5 to 5

More lines, now with the values ahead:

Ki [1] [nM] | IC50 [2] [µM] | Compound
10 to 1000 | 0.5 to 5 | NC(=O)[C@H]1CCCN(c2cc(-c3cnc4ccc(Cl)nn34)ccn2)C1 [II-189, (S)-1-(4-(6-Chloroimidazo[1,2-b]pyridazin-3-yl)pyridin-2-yl)piperidine-3-carboxamide]
10 to 1000 | > 5 | O=C(NCCO)C1CCCN(c2cc(-c3cnc4ccc(C(F)F)nn34)ncn2)C1 (centres unmarked) [II-191, 1-(6-(6-(Difluoromethyl)imidazo[1,2-b]pyridazin-3-yl)pyrimidin-4-yl)-N-(2-hydroxyethyl)piperidine-3-carboxamide]
10 to 1000 | > 5 | NS(=O)(=O)C1CCN(c2cc(-c3cnc4ccc(C(F)F)nn34)ncn2)C1 (centres unmarked) [II-192, 1-(6-(6-(Difluoromethyl)imidazo[1,2-b]pyridazin-3-yl)pyrimidin-4-yl)pyrrolidine-3-sulfonamide]
10 to 1000 | > 5 | CC(=O)N1CCN(c2cc(-c3cnc4ccc(C)nn34)ccn2)CC1 [II-193, 1-(4-(4-(6-Methylimidazo[1,2-b]pyridazin-3-yl)pyridin-2-yl)piperazin-1-yl)ethanone]
10 to 1000 | > 5 | Clc1ccc2ncc(-c3ccnc(N4CCOCC4)c3)n2n1 [II-194, 4-(4-(6-Chloroimidazo[1,2-b]pyridazin-3-yl)pyridin-2-yl)morpholine]
10 to 1000 | > 5 | CN1CCN(c2cc(-c3cnc4ccc(Cl)nn34)ccn2)CC1 [II-195, 6-Chloro-3-(2-(4-methylpiperazin-1-yl)pyridin-4-yl)imidazo[1,2-b]pyridazine]
10 to 1000 | > 5 | CCc1ccc2ncc(-c3cc(N4CCO[C@H](CNS(C)(=O)=O)C4)ncn3)n2n1 [II-196, (S)—N-((4-(6-(6-Ethylimidazo[1,2-b]pyridazin-3-yl)pyrimidin-4-yl)morpholin-2-yl)methyl)methanesulfonamide]
< 10 | < 0.5 | C[C@@H]1CO[C@H](CNS(C)(=O)=O)CN1c1cc(-c2cnc3ccc(C(F)F)nn23)ncn1 [II-197, N-(((2S,5R)-4-(6-(6-(Difluoromethyl)imidazo[1,2-b]pyridazin-3-yl)pyrimidin-4-yl)-5-methylmorpholin-2-yl)methyl)methanesulfonamide]
10 to 1000 | > 5 | COC1CC(CNS(C)(=O)=O)CN(c2cc(-c3cnc4ccc(C(F)F)nn34)ncn2)C1 (centres unmarked) [II-198, N-((1-(6-(6-(Difluoromethyl)imidazo[1,2-b]pyridazin-3-yl)pyrimidin-4-yl)-5-methoxypiperidin-3-yl)methyl)methanesulfonamide]
10 to 1000 | > 5 | CS(=O)(=O)NC1CCN(c2cc(-c3cnc4ccc(C(F)F)nn34)ncn2)C1 (centres unmarked) [II-199, N-(1-(6-(6-(Difluoromethyl)imidazo[1,2-b]pyridazin-3-yl)pyrimidin-4-yl)pyrrolidin-3-yl)methanesulfonamide]
< 10 | < 0.5 | NS(=O)(=O)NCC1CCCN(c2cc(-c3cnc4ccc(C(F)F)nn34)ncn2)C1 (centres unmarked) [II-202, 1-((1-(6-(6-(Difluoromethyl)imidazo[1,2-b]pyridazin-3-yl)pyrimidin-4-yl)piperidin-3-yl)methyl)sulfuric diamide]
< 10 | 0.5 to 5 | CC1(C)CN(c2cc(-c3cnc4ccc(C(F)F)nn34)ncn2)CC1CNS(C)(=O)=O (centres unmarked) [II-213, N-((1-(6-(6-(Difluoromethyl)imidazo[1,2-b]pyridazin-3-yl)pyrimidin-4-yl)-4,4-dimethylpyrrolidin-3-yl)methyl)methanesulfonamide]
